Experiments:
[1] = biological target: vascular endothelial αVβ3 integrin on sheared human aortic endothelial cells (human)
[2] = tested on: αVβ3 on human endothelial cells; assay: Binding assay: L. lactis expressing ClfA binding to sheared human endothelial cells; assay type: cell-based; settings: pretreatment of the human endothelial cells with cilengitide; FIG. 6B
Description: (§1) Sheared HAoECs were seeded into wells of a 96 well tissue culture plate at a density of 2.5×10^4 cells per well in a volume of 100 μl. Experiments were carried out either in the presence or absence of TNFα at 10 ng/ml. The HAoECs were incubated at 37° C. 5% CO2 for 4 hours to facilitate attachment and cell-cell contact on the plate. Following the 4 hr incubation the media was removed and 100 μl of human platelet poor plasma (PPP), 4 mg/ml fibrinogen or 1 mg/ml IgG was added to each well and incubated for 1 hr at 37° C. 5% CO2. The wells were washed with PBS and the wells were blocked with 100 μl of 1% […] for 1 hr at 37° C. Finally the wells were washed with 100 μl of TBS and 100 μl of SYBR green II stained bacteria was added per well at a MOI of 400. The cells were incubated for a further 1 hr at 37° C. 5% CO2 and then read on a fluorescent plate reader (1420 Victor V3, Perkin Elmer, Dublin, Ireland) at 485/535 nm. The bacteria were then removed gently by pipette and the plate washed with 100 μl TBS/well. The plate was then read again at 485/535 nm. Adhered bacteria were calculated as a percent remaining from the initial reading multiplied by the number of bacteria added.

human endothelial cells [3] = assay: Transwell permeability assay, S. aureus infected human endothelial cells; assay type: cell-based; settings: cilengitide at 0.05 μM for 1 hr; FIG. 10
Description: (§2) Endothelial barrier permeability was assessed using a transwell apparatus with the slight modifications. Sheared HAoECs were trypsinized and seeded into hanging inserts, were placed in a 6 well plate. To the lower (abluminal) chamber of the plate 4 ml of cell media was added and 2 ml of media containing 200,000 cells/ml was added to the top (luminal) chamber. The wells plates were incubated at 37° C. in a 5% CO2 and humidified atmosphere overnight to form a confluent monolayer. Media in the abluminal chamber was changed to antibiotic free media while simultaneously the media in the luminal chamber was removed and washed with antibiotic free media. Cells were infected with S. aureus Newman WT and S. aureus ΔClfA in 2 ml of antibiotic free media to infect the cells at a MOI of 400 for 3 hrs at 37° C. FITC dextran (40 kDa) was added to the top chamber for a final concentration of 250 μg/ml in 2 ml. Media samples from the abluminal chamber were taken 24 hrs after infection measured on a plate reader at fluorescence Ex/Em 485/535 nm. The experiment was repeated to test αVβ3 blocking by cilengitide at 0.05 μM for 1 hr between the TNFα exposure and the addition of 4 mg/ml fibrinogen in place of plasma for 1 hr. This experiment was repeated using E. coli and E. coli AompA instead of S. aureus Newman WT or Newman ΔClfA.

endothelial cells [4] = assay: Transwell permeability assay, E. coli infected endothelial cells; assay type: cell-based, human; settings: preincubating the endothelial cells with cilengitide; FIG. 16
Description: as §2

human endothelial cells [5] = assay: MTT cytotoxicity assay; assay type: cell-based; settings: 0.05 μM cilengitide, FIG. 12
Description: Cell metabolic activity was measured using a MTT ((3-(4,5-dimethylthiazol-2-yl)-2,5-diphenyltetrazolium bromide) assay kit. Sheared HAoECs were seeded into a clear 96 well microtitre plate at a density of 2.5×10^4 cells/well in 100 μl in media containing 10 ng/ml TNFα. The cells were incubated for 4 hrs at 37° C. Media was removed from the wells after 4 hrs and replaced with 100 μl of fresh cell media, cell media containing a vehicle or cell media containing 0.05 μM cilengitide. The plate was incubated for a further one hour before the media was changed for 100 μl of fresh cell media with 10 μl of 12 mM MTT stock and the plate 10 incubated at 37° C. for 4 hrs. All but 25 μl of liquid was removed from each well and 10 μl of DMSO was added per well. The plate was incubated for 10 minutes at 37° C. before being read on a plate reader for absorbance at 570 nm.

[6] = tested on: vascular endothelial αVβ3 integrin receptor; assay: Adhesion of gram positive and gram negative bacteria to vascular endothelial cells; assay type: cell-based, human; settings: blocking the αVβ3 receptor
Description: as §1

human endothelial cells [7] = assay: Apoptosis assay (Annexin V), S. aureus infected human endothelial cells; assay type: cell-based; settings: cilengitide at 0.05 µM for 1 hr; FIG. 9B
Description: (§3) Sheared HAoECs in a 6 well plate were exposed to 1 ng of TNFα per 25,000 endothelial cells and were incubated for 4 hrs at 37° C. The TNFα containing media was removed and 1 ml of 4 mg/ml Fg in media at 37° C. for 1 hr. Media was removed and replaced with 1 ml of antibiotic free media containing S. aureus Newman WT or Newman ΔClfA to a MOI of 400 in a final volume per well of 2 ml. The cells were incubated for 24 hrs at 37° C. Following incubation the media was removed and the wells washed 3 times with warm PBS. Cells were detached by trypsinization and pelleted. The cell pellet was washed in ice cold (4° C.) PBS before being stained with a TACS™ Annexin V Apoptosis Kit. The cells were analysed on a flow cytometer (BD FACSCanto™ II Flow Cytometer). The experiment was repeated to test αVβ3 blocking by cilengitide at 0.05 µM for 1 hr between the TNFα exposure and the addition of 4 mg/ml fibrinogen for 1 hr. This experiment was repeated using E. coli and E. coli AompA instead of S. aureus Newman WT or Newman ΔClfA.

human endothelial cells [8] = assay: Proliferation assay, S. aureus infected human endothelial cells; assay type: cell-based; settings: 0.05 μM cilengitide, 24 hrs; FIG. 8H
Description: Sheared HAoECs were seeded into a six well plate at 150,000 cells per well in 1.6 ml media containing 10 ng/ml of TNFα. The cells were incubated for 4 hrs at 37° C. in a 5% CO2. […] The media was removed and the well washed with antibiotic free media. To each well 1.6 ml of antibiotic free media was added containing S. aureus Newman or S. aureus ΔClfA for a MOI of 400. The cells were incubated at 37° C. in for 24 hrs. Following incubation the media was removed from the cells and they were washed 4 times with warm PBS. The cells were detached from the 6 well plate by trypsinization counted on a haemocytometer.

purified receptor a Vb3 = purified receptor a Vb3 (Homo sapiens, UniProt P05106+P06756); assay: L. lactis ClfA binding to purified receptor αVβ3; settings: pretreating the purified receptor with cilengitide; FIG. 6C
[9] = tested on: S. aureus adhesion to murine endothelial cells; assay: In vivo venous mesenteric perfusion model of bacterial adhesion; settings: cilengitide administered intravenously; FIG. 7C, 7E
endothelial cells [10] = assay: Apoptosis assay (Annexin V flow cytometry), E. coli infected endothelial cells
Description: as §3

[11] = tested on: αVβ3 integrin on sheared endothelial cells; assay: E. coli binding to sheared endothelial cells under perfusion; assay type: cell-based, human; settings: cilengitide 0.05 μM; E. coli perfused at 10 dyns for 5 minutes; FIG. 14B
endothelial cells [12] = assay: VE-cadherin immunostaining of tight junction formation after E. coli infection; assay type: cell-based, human; settings: pre-treating the endothelial cells with cilengitide; FIG. 17E
[13] = tested on: αVβ3 integrin on endothelial cells; assay: E. coli binding to endothelial cells, static assay; assay type: cell-based, human; settings: cilengitide 0.05 μM; FIG. 14A
Description: as §1

Sequence of purified receptor a Vb3 (P06756 31-889 limits assumed): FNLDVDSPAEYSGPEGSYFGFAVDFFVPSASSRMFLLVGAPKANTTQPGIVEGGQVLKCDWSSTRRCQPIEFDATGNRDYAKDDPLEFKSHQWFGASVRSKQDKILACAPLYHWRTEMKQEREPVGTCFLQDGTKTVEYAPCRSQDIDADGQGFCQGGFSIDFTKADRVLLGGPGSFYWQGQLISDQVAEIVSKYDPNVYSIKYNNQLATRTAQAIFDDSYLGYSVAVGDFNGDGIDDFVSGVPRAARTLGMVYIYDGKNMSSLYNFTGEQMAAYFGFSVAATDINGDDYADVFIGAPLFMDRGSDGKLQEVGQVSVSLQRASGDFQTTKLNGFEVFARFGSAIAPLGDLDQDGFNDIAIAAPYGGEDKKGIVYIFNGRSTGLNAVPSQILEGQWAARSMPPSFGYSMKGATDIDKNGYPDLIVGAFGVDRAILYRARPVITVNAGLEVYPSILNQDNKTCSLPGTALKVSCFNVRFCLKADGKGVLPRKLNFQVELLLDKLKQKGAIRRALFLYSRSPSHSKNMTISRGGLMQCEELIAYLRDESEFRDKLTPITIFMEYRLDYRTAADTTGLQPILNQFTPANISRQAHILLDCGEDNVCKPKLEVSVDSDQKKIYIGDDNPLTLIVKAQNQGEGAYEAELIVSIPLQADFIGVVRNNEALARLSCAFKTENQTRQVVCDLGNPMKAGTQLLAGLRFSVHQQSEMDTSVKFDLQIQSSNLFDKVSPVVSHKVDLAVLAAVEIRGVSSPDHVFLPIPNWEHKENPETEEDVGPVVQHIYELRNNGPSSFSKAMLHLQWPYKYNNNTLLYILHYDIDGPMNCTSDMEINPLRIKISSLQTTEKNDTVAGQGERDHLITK
Sequence of purified receptor a Vb3 (P06756 891-1048 partner limits assumed): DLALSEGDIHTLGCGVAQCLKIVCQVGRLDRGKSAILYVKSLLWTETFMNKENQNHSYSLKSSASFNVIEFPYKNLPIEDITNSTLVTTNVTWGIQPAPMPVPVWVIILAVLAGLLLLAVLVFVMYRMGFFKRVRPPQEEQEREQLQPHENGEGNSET
Sequence of purified receptor a Vb3 (P05106 27-788): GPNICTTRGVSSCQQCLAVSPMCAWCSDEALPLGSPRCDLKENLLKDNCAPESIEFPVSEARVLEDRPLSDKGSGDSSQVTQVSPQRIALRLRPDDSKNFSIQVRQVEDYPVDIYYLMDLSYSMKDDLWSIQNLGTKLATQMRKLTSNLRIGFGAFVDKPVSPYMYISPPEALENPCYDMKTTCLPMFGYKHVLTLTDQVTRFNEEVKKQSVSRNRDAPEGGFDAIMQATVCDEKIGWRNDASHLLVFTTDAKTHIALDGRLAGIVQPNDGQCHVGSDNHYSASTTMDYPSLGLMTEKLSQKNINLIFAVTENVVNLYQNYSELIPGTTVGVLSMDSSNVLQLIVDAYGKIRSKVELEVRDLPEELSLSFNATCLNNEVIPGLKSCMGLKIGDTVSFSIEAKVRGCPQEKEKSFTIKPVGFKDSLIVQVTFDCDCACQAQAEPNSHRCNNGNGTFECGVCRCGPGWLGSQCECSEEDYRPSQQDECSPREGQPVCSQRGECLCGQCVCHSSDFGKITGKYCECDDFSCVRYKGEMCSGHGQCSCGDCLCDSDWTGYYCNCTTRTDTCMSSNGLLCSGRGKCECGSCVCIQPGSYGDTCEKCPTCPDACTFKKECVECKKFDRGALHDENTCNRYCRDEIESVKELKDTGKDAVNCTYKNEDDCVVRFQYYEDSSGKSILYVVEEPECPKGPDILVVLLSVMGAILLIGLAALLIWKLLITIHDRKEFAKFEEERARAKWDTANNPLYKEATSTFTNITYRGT

Compound | endothelial cell permeability (% increase in permeability) [1] | binding of L. lactis expressing ClfA to human endothelial cells [2] | permeability of the human endothelial barrier following S. aureus infection (human endothelial cells [3]) | E. coli induced permeability of endothelial cells (endothelial cells [4]) | toxicity in human endothelial cells (human endothelial cells [5]) | adhesion of both gram positive and gram negative bacteria to vascular endothelial cells [6] | S. aureus induced apoptosis of human endothelial cells (human endothelial cells [7]) | human endothelial cell proliferation after S. aureus infection (human endothelial cells [8]) | L. lactis ClfA binding to purified receptor αVβ3 (purified receptor a Vb3) | S. aureus binding to murine endothelial cells [9] | viability of endothelial cells (endothelial cells [10]; cilengitide alone, no infection) | E. coli induced apoptosis of endothelial cells (endothelial cells [10]; preincubation of endothelial cells with cilengitide, Annexin V, FIG. 17F) | E. coli binding to sheared endothelial cells, perfused [11] | VE-cadherin tight junction formation following E. coli infection (endothelial cells [12]) | E. coli binding to endothelial cells, static assay [13]
Escherichia coli outer membrane protein A | 30 | – | – | – | – | – | – | – | – | – | – | – | – | – | –
CC(C)[C@H]1C(=O)N[C@@H](CCCN=C(N)N)C(=O)NCC(=O)N[C@@H](CC(=O)O)C(=O)N[C@H](Cc2ccccc2)C(=O)N1C [cilengitide, cyclo(-RGDf(NMe)V-)] | – | significantly reduced | significantly reduced | significantly reduces permeability | does not cause toxicity | dose-dependent reduction in adhesion | significantly reduced | significantly recovered | significantly inhibited | failed to significantly bind | failed to affect | significant reduction | significantly inhibited | recovery of tight junction formation | significantly inhibited

Reference: US20250228916A1, “A METHOD OF TREATING OR PREVENTING SEPSIS” (priority 2016, published 2025)
